We go through eight compounds from patent US20250066338A1, “CERTAIN 3-AZABICYCLO[3.1.0]HEXANES AS GLP-1 RECEPTOR MODULATORS” (AstraZeneca AB, priority 2021, published 2025).

Assay [1] concerns the target human GLP-1R receptor (Homo sapiens (Human), UniProt P43220, L260F). Description: CHOK1 GLP-1R cAMP Assay. The following applies: CHO-K1 cell line stably expressing human GLP-1R; HTRF cAMP; agonist activity. The class given is cell-based. How it is done:
A cell line stably expressing the human GLP-1R receptor (NM 002062.5, including the naturally-occurring variant Leu260Phe) in a CHO-K1 (ATCC® CCL-61™) was used for assay.
GLP-1 receptor mediated agonist activity was determined in a cell based assay measuring cyclic adenosine monophosphate (cAMP) levels in cells using Homogeneous Time-Resolved Fluorescence (HTRF) cAMP detection kit (CisBio catalog #62AM4PEC, cAMP Gs Dynamic range kit). The cAMP detection method is based on a competitive immunoassay, in which cAMP produced by the cells and cAMP labeled with the dye d2 compete for binding to a Europium-Cryptate-labeled anti-cAMP antibody. The specific HTRF signal is inversely proportional to the concentration of cAMP.
Compounds were added to individual well in 384 well-assay plates (Greiner #784076) using an Echo (LabCyte) dispenser from 10 mM stocks. Varying concentration of compounds were added to wells, and DMSO was used to normalize each well to a volume of 100 nL. A dose response curve of GLP1(7-36)NH2 (Bachem H-6795) was included in each run. 5 μL of cAMP concentration response standards are applied in specified wells in the assay plates. Cryo-preserved cells are thawed and resuspended in assay buffer pre-heated to 37° C. (20 mM HEPES pH 7.4, lx Hank's Balanced Salt Solution (HBSS, Life Technologies #14065) supplemented with 0.1% (w/v) bovine serum albumin (Sigma, A-7030). Cells were centrifuged at 250*g for 5 min at rt, and resuspended in room tempered assay buffer to a final density of 0.16*10^6 cell/mL, to deliver 800 cells/well. 5 μL of assay buffer with 1 mM 3-isobutyl-1-methylxanthin (IBMX; Sigma cat I-7018) was dispensed per well in assay plates using a multidrop combi (Thermo Scientific) subsequently 5 μL of cell suspension was distributed to relevant wells in the assay using a multidrop dispenser. Assay plates were incubated 20 min at rt.
Detection reagents, Europium-Cryptate-labeled anti-cAMP antibody and cAMP labeled with the dye d2, are diluted in lysis buffer, provided by the manufacturer. 5 μL of each detection reagent is supplemented to each assay well using a multidrop dispenser. Assay plates are incubated in the dark for at least one h. The HTRF signal is measured using the HTRF module (excitation: 337 nm, emission A: 665 nm and emission B: 620 nm) in Pherastar FSX (BMG Labtech).
Raw data were converted to pM cAMP using the cAMP standard curve included in each run. Converted data were further analyzed in Genedata Screener (Genedata) and EC50 determinations were made from agonist dose-response curves analyzed with a curve fitting program using a 4-parameter logistic dose response equation (Equation y=A+((B−A)/1+((C/x)^D))) where A is no stimulation, B is full stimulation, C is the EC50 and D is the Hill slope). The percent effect was determined relative to a saturating concentration of a full GLP-1R agonist (GLP1(7-36)NH2 has 100% effect in this assay setup).

Assay [2] has as its target GLP-1R in EndoC-βH1 cells (Homo sapiens (Human), UniProt P43220). Description: EndoC cAMP Accumulation Assay. To be noted: EndoC-βH1 human pancreatic beta cell line; HTRF cAMP accumulation. The format is cell-based. From the text: EndoC cAMP Accumulation Assay
A HTRF cAMP assay (cAMP Gs dynamic kit; CisoBio Cat #62AM4PEJ) was used to identify agonists of GLP-1R in a pancreatic insulinoma cell line (EndoC-βH1). […] EndoC-βH1 cells have detectable GLP-1R messenger ribonucleic acid (mRNA) as detected by quantitative polymerase chain reaction (qPCR). […] The EndoC-βH1 cell line is a valid model of human beta cells and applicable for screenings to identify novel drug target candidates (Mol. Metab., 2018, 8, 144-157). CisBio HTRF cAMP kits are based on a competitive immunoassay using cryptate-labelled anti-cAMP antibody and d2-labeled cAMP. The detection kit is intended for the direct quantitative determination of cAMP. The specific signal (i.e. energy transfer) is inversely proportional to the concentration of cAMP in the standard or sample. Test compounds (10 mM in DMSO) were diluted into assay buffer (HBSS (Sigma #H8264) supplemented with 25 mM HEPES (Gibco #15630, pH 7.4), 0.1% BSA (Sigma #A3059) and 0.5 mM IBMX (Sigma #17018) included fresh on the day of the assay) into 96 well U-bottom plates (Greiner #650201). Diluted compounds were transferred to ECHO source polypropylene plates (Labcyte #P-05525) and dose response curves were dispensed acoustically using ECHO 550 into black shallow-well u-bottom 384-well HTRF Assay Plates (Corning 4514).
Cryovials of EndoC-H1 (supplied at 1×10e^7 cells/vial) were used directly for screening. The cryovials and were removed from N2 (1) and thawed rapidly in a 37° C. water bath. The cells were resuspended in assay buffer and centrifuged at 300 g for 5 min. Cells were resuspended in assay buffer at the appropriate concentration, typically at 12e5 cells per mL (3000 cells per well, dependent on cell batch) and 2.5 μL diluted cells were added to all wells of destination plate by Multidrop combi reagent dispenser (Thermofisher). The plates were incubated at rt for 30 min. The assay was stopped by adding 2.5 μL anti-cAMP cryptate solution to all wells and 2.5 μL cAMP-d2 solution (both diluted 1:20 in lysis buffer) to columns 1-22 by Combi drop. A volume of 2.5 μL cAMP-d2 solution was added to wells E23 to P24 and 2.5 μL lysis buffer added to wells A23 to D24 by multichannel pipette. The plates were incubated at rt for 1 h and read on an Envision plate reader using excitation wavelength of 320 nm and emission of […] and 660 nm.
Raw data from Envision is converted to % DeltaF according to the manufacturer's instructions. Dose response curves are analysed via 4-Parameter Logistical Analysis and assay plate Z′ values obtained. Samples are graphed as percentage (%) activation plots compared to GIP (1-42, Bachem H-5645) with assay window defined by negative control as basal cell cAMP levels and positive control are defined by maximum GIP (82.5 nM) signal. GLP1 (7-36 amide, Bachem H-6795) dose response curve was included on all plates.

Sequence of GLP-1R in EndoC-βH1 cells (P43220 24-463): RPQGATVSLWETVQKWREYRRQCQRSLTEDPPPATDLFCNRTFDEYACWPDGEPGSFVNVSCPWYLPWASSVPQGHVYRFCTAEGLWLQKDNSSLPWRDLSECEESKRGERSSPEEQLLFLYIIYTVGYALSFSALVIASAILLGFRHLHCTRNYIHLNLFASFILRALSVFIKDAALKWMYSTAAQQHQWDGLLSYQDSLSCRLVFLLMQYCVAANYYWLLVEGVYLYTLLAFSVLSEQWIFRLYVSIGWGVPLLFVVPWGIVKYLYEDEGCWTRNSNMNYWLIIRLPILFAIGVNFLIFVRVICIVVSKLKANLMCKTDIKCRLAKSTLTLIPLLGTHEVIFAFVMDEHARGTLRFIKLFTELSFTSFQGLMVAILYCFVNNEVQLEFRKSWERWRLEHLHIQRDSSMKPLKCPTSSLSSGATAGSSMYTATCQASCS
Sequence of human GLP-1R receptor (P43220 24-463 L260F): as the sequence (P43220 24-463) above, with L237F counted along it

As for `CCn1cncc1Cn1c(CN2C[C@@H]3[C@H](C2)[C@H]3c2cccc(OCc3ccc(Cl)cc3F)n2)nc2c(OC)cc(C(=O)O)cc21` [Example 14, 2-(((1R,5S,6r)-6-(6-((4-Chloro-2-fluorobenzyl)oxy)pyridin-2-yl)-3-azabicyclo[3.1.0]hexan-3-yl)methyl)-1-((1-ethyl-1H-imidazol-5-yl)methyl)-4-methoxy-1H-benzo[d]imidazole-6-carboxylic acid], the EC50 stood at 30 nM in assay [1] and 7.4 nM in assay [2].

On to `O=C(O)c1cc(F)c2nc(CN3C[C@@H]4[C@H](C3)[C@H]4c3cccc(OCc4ccc(Cl)cc4F)n3)n(C[C@@H]3CCO3)c2c1` [Example 15, 2-(((1R,5S,6S)-6-(6-((4-Chloro-2-fluorobenzyl)oxy)pyridin-2-yl)-3-azabicyclo[3.1.0]hexan-3-yl)methyl)-4-fluoro-1-(((S)-oxetan-2-yl)methyl)-1H-benzo[d]imidazole-6-carboxylic acid], for which the figures for the EC50 in assay [1] and in assay [2] were 57 nM and 28 nM, respectively.

Regarding `O=C(O)c1ccc2nc(CN3C[C@@H]4[C@H](C3)[C@H]4c3nc(OCc4ccc(Cl)cc4F)ccc3F)n(C[C@@H]3CCO3)c2c1` [Example 16, 2-(((1R,5S,6S)-6-(6-((4-Chloro-2-fluorobenzyl)oxy)-3-fluoropyridin-2-yl)-3-azabicyclo[3.1.0]hexan-3-yl)methyl)-1-(((S)-oxetan-2-yl)methyl)-1H-benzo[d]imidazole-6-carboxylic acid], the EC50 in assay [1] came to 47 nM; in assay [2] it was 24 nM.

In the case of `COc1cc(C(=O)O)cc2c1nc(CN1C[C@@H]3[C@H](C1)[C@H]3c1nc(OCc3ccc(Cl)cc3F)ccc1Cl)n2C[C@@H]1CCO1` [Example 18, 2-(((1R,5S,6S)-6-(3-Chloro-6-((4-chloro-2-fluorobenzyl)oxy)pyridin-2-yl)-3-azabicyclo[3.1.0]hexan-3-yl)methyl)-4-methoxy-1-(((S)-oxetan-2-yl)methyl)-1H-benzo[d]imidazole-6-carboxylic acid], the half-maximal effective concentration (EC50) came to 66 nM in assay [1] and 42 nM in assay [2].

Turning to `COc1cc(C(=O)O)cc2c1nc(CN1C[C@@H]3[C@H](C1)[C@H]3c1cccc(OCc3ccc(F)cc3F)n1)n2C[C@@H]1CCO1` [Example 20, 2-(((1R,5S,6S)-6-(6-((2,4-Difluorobenzyl)oxy)pyridin-2-yl)-3-azabicyclo[3.1.0]hexan-3-yl)methyl)-4-methoxy-1-(((S)-oxetan-2-yl)methyl)-1H-benzo[d]imidazole-6-carboxylic acid], the EC50 stood at 62 nM in assay [1] and 43 nM in assay [2].

As for `COc1cc(C(=O)O)cc2c1nc(CN1C[C@@H]3[C@H](C1)[C@H]3c1cccc(OCc3cc(C)ccc3F)n1)n2C[C@@H]1CCO1` [Example 21, 2-(((1R,5S,6S)-6-(6-((2-Fluoro-5-methylbenzyl)oxy)pyridin-2-yl)-3-azabicyclo[3.1.0]hexan-3-yl)methyl)-4-methoxy-1-(((S)-oxetan-2-yl)methyl)-1H-benzo[d]imidazole-6-carboxylic acid], the figures for the concentration giving a half-maximal response (EC50) in assay [1] and in assay [2] were 44 nM and 1100 nM, respectively.

As to `COc1cc(C(=O)O)cc2c1nc(CN1C[C@@H]3[C@H](C1)[C@H]3c1cccc(OCc3ccccc3OC(F)F)n1)n2C[C@@H]1CCO1` [Example 22, 2-(((1R,5S,6S)-6-(6-((2-(Difluoromethoxy)benzyl)oxy)pyridin-2-yl)-3-azabicyclo[3.1.0]hexan-3-yl)methyl)-4-methoxy-1-(((S)-oxetan-2-yl)methyl)-1H-benzo[d]imidazole-6-carboxylic acid], the concentration giving a half-maximal response (EC50) in assay [1] is 49 nM; in assay [2], 34 nM.

As to `COc1cc(C(=O)O)cc2c1nc(CN1C[C@@H]3[C@H](C1)[C@H]3c1cccc(OCc3ccc(C)cc3)n1)n2C[C@@H]1CCO1` [Example 23, 4-Methoxy-2-(((1R,5S,6S)-6-(6-((4-methylbenzyl)oxy)pyridin-2-yl)-3-azabicyclo[3.1.0]hexan-3-yl)methyl)-1-(((S)-oxetan-2-yl)methyl)-1H-benzo[d]imidazole-6-carboxylic acid], the EC50 was determined as 74 nM in assay [1] and 31 nM in assay [2].
